According to paper PMC9653409, “Generative deep learning enables the discovery of a potent and selective RIPK1 inhibitor” (Nature Communications, 2022):

Columns and labels:
Assay in all cases: Kinase inhibitory activity profiling of RI-962@10 µM (406 kinases, Eurofins)
Assay type in all cases: biochemical
[1] = target: panel of human kinases (kinase named in endpoint) (Homo sapiens, UniProt Q9H1R3); details: 10 µM; read-out: Activity (%), MYLK2(h)
Procedure, shortened: (§1)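 Radiometric filter-binding kinase assays: enzyme preincubated 15 min with compound in 8 mM MOPS pH 7.0, 0.2 mM EDTA, 250 μM peptide substrate, 10 mM magnesium acetate, 10 μM [γ-33P]-ATP. Reaction started with Mg/ATP, run 40 min at room temperature, stopped with phosphoric acid; 33P incorporation read by scintillation counting. Other kinases by similar protocols.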

[2] = target: panel of human kinases (kinase named in endpoint) (Homo sapiens, UniProt P28482); details: 10 µM; read-out: Activity (%), MAPK2(h)
Procedure, shortened: as §1

[3] = target: panel of human kinases (kinase named in endpoint) (Homo sapiens, UniProt Q16539, T106M); details: 10 µM; read-out: Activity (%), SAPK2a(T106M)(h)
Procedure, shortened: as §1

[4] = target: panel of human kinases (kinase named in endpoint) (Homo sapiens, UniProt Q8TDR2); details: 10 µM; read-out: Activity (%), CLIK1(h)
Procedure, shortened: as §1

[5] = target: panel of human kinases (kinase named in endpoint) (Homo sapiens, UniProt Q9H4B4); details: 10 µM; read-out: Activity (%), Plk3(h)
Procedure, shortened: as §1

[6] = target: panel of human kinases (kinase named in endpoint) (Homo sapiens, UniProt O00444); details: 10 µM; read-out: Activity (%), Plk4(h)
Procedure, shortened: as §1

[7] = target: panel of human kinases (kinase named in endpoint) (Homo sapiens, UniProt Q05397); details: 10 µM; read-out: Activity (%), FAK(h)
Procedure, shortened: as §1

[8] = target: panel of human kinases (kinase named in endpoint) (Homo sapiens, UniProt Q15349); details: 10 µM; read-out: Activity (%), Rsk3(h)
Procedure, shortened: as §1

[9] = target: panel of human kinases (kinase named in endpoint) (Homo sapiens, UniProt P27448); details: 10 µM; read-out: Activity (%), MARK3(h)
Procedure, shortened: as §1

[10] = target: panel of human kinases (kinase named in endpoint) (Homo sapiens, UniProt Q86UE8); details: 10 µM; read-out: Activity (%), TLK2(h)
Procedure, shortened: as §1

[11] = target: panel of human kinases (kinase named in endpoint) (Homo sapiens, UniProt O75582); details: 10 µM; read-out: Activity (%), MSK1(h)
Procedure, shortened: as §1

[12] = target: panel of human kinases (kinase named in endpoint) (Homo sapiens, UniProt P49674); details: 10 µM; read-out: Activity (%), CK1ε(h)
Procedure, shortened: as §1

[13] = target: panel of human kinases (kinase named in endpoint) (Homo sapiens, UniProt P29597); details: 10 µM; read-out: Activity (%), TYK2(h)
Procedure, shortened: as §1

[14] = target: panel of human kinases (kinase named in endpoint) (Homo sapiens, UniProt Q7KZI7); details: 10 µM; read-out: Activity (%), PAR-1Bα(h)
Procedure, shortened: as §1

[15] = target: panel of human kinases (kinase named in endpoint) (Homo sapiens, UniProt Q9Y2K2); details: 10 µM; read-out: Activity (%), SIK3(h)
Procedure, shortened: as §1

[16] = target: panel of human kinases (kinase named in endpoint) (Homo sapiens, UniProt P36507); details: 10 µM; read-out: Activity (%), MEK2(h)
Procedure, shortened: as §1

[17] = target: panel of human kinases (kinase named in endpoint) (Homo sapiens, UniProt P57059); details: 10 µM; read-out: Activity (%), SIK(h)
Procedure, shortened: as §1

[18] = target: panel of human kinases (kinase named in endpoint) (Homo sapiens, UniProt Q9UM73); details: 10 µM; read-out: Activity (%), ALK(h)
Procedure, shortened: as §1

[19] = target: panel of human kinases (kinase named in endpoint) (Homo sapiens, UniProt P00533, L858R/T790M); details: 10 µM; read-out: Activity (%), EGFR(T790M,L858R)(h)
Procedure, shortened: as §1

[20] = target: panel of human kinases (kinase named in endpoint) (Homo sapiens, UniProt Q13237); details: 10 µM; read-out: Activity (%), PRKG2(h)
Procedure, shortened: as §1

[21] = target: panel of human kinases (kinase named in endpoint) (Homo sapiens, UniProt P15735); details: 10 µM; read-out: Activity (%), PhKγ2(h)
Procedure, shortened: as §1

[22] = target: panel of human kinases (kinase named in endpoint) (Homo sapiens, UniProt Q8WXR4); details: 10 µM; read-out: Activity (%), MYO3B(h)
Procedure, shortened: as §1

[23] = target: panel of human kinases (kinase named in endpoint) (Homo sapiens, UniProt P50613); details: 10 µM; read-out: Activity (%), CDK7/cyclinH/MAT1(h)
Procedure, shortened: as §1

[24] = target: panel of human kinases (kinase named in endpoint) (Homo sapiens, UniProt P53355); details: 10 µM; read-out: Activity (%), DAPK1(h)
Procedure, shortened: as §1

[25] = target: panel of human kinases (kinase named in endpoint) (Homo sapiens, UniProt O43318); details: 10 µM; read-out: Activity (%), TAK1(h)
Procedure, shortened: as §1

[26] = target: panel of human kinases (kinase named in endpoint) (Homo sapiens, UniProt P51957); details: 10 µM; read-out: Activity (%), NEK4(h)
Procedure, shortened: as §1

Chain of panel of human kinases (kinase named in endpoint) (Homo sapiens, UniProt P36507) (P36507 whole entry): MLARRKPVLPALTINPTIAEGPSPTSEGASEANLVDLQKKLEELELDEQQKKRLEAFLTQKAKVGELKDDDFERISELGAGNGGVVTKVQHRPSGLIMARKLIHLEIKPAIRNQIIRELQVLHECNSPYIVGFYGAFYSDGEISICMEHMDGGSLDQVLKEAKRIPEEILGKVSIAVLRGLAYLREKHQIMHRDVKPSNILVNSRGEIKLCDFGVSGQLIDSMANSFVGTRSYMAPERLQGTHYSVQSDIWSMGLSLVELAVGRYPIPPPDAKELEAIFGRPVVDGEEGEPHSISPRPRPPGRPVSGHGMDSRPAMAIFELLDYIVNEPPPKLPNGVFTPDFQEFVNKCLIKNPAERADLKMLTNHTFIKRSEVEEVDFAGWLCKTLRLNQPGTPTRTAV
Chain of panel of human kinases (kinase named in endpoint) (Homo sapiens, UniProt P27448) (P27448 whole entry): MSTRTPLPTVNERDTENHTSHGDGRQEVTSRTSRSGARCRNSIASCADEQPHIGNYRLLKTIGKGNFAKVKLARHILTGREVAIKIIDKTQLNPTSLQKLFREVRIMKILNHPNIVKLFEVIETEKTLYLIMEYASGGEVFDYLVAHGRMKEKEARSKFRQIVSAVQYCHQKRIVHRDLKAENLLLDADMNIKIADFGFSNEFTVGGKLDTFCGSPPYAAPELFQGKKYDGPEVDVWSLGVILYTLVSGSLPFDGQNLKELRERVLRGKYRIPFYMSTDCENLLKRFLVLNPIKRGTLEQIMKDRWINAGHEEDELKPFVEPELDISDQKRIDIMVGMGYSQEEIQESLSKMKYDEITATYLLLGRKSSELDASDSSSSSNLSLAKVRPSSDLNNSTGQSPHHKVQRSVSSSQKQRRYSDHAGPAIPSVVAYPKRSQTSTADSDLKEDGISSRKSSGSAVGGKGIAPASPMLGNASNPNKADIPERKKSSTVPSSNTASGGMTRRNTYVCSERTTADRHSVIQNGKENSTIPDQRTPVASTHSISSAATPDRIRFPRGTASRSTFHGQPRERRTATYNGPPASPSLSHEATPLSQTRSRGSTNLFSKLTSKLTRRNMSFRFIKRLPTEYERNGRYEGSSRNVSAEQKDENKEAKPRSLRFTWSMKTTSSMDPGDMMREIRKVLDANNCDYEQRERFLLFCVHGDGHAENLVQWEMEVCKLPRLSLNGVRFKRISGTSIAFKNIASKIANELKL
Chain of panel of human kinases (kinase named in endpoint) (Homo sapiens, UniProt Q13237) (Q13237 whole entry): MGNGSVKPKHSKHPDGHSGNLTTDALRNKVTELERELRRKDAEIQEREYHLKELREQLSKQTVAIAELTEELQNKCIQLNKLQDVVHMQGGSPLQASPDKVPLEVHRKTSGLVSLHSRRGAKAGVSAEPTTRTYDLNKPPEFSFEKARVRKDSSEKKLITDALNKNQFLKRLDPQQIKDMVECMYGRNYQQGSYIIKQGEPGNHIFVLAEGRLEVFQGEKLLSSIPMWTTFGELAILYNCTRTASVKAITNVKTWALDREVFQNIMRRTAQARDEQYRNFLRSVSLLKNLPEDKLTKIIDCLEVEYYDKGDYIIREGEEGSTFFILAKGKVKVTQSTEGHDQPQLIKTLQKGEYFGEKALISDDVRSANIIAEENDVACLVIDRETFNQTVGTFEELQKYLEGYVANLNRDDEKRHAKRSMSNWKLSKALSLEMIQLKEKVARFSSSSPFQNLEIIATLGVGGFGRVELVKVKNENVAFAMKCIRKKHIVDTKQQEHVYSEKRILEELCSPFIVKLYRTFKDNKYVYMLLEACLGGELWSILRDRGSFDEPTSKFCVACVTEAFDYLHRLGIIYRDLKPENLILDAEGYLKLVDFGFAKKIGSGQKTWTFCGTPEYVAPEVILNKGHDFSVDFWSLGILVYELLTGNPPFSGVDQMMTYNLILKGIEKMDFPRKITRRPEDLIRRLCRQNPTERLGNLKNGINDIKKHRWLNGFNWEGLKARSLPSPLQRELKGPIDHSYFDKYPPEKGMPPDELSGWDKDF
Chain of panel of human kinases (kinase named in endpoint) (Homo sapiens, UniProt O43318) (O43318 whole entry): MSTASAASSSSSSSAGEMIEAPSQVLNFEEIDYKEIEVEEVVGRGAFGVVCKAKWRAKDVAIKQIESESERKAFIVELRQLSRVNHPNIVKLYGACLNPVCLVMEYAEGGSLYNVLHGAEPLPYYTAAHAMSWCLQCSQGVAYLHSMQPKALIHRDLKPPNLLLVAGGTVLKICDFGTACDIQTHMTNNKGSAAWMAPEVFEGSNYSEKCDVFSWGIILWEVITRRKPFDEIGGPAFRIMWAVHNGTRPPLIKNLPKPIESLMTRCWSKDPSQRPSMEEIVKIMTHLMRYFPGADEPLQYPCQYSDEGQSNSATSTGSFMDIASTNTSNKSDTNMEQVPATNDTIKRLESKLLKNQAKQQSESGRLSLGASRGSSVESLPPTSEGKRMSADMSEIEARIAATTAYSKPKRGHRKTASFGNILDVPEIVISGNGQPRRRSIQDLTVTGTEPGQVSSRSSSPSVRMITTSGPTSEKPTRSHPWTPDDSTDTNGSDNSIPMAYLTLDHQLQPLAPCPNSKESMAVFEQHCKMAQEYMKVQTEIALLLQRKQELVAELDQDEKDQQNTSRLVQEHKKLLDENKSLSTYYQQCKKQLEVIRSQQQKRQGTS
Chain of panel of human kinases (kinase named in endpoint) (Homo sapiens, UniProt Q8TDR2) (Q8TDR2 whole entry): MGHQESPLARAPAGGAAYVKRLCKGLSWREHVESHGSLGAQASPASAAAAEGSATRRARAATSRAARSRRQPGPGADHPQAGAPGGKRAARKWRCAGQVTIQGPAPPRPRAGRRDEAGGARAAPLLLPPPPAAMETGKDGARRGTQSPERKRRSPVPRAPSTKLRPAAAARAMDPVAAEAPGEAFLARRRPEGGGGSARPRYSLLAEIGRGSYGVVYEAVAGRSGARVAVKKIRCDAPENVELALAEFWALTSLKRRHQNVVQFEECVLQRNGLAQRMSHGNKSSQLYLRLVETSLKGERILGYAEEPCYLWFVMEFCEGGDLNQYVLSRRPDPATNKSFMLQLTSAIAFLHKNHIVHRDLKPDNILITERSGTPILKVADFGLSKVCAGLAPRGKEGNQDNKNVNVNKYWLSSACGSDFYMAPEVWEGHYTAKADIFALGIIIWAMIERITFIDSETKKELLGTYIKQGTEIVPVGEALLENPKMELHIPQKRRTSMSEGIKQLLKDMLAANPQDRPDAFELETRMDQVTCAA
Chain of panel of human kinases (kinase named in endpoint) (Homo sapiens, UniProt Q05397) (Q05397 whole entry): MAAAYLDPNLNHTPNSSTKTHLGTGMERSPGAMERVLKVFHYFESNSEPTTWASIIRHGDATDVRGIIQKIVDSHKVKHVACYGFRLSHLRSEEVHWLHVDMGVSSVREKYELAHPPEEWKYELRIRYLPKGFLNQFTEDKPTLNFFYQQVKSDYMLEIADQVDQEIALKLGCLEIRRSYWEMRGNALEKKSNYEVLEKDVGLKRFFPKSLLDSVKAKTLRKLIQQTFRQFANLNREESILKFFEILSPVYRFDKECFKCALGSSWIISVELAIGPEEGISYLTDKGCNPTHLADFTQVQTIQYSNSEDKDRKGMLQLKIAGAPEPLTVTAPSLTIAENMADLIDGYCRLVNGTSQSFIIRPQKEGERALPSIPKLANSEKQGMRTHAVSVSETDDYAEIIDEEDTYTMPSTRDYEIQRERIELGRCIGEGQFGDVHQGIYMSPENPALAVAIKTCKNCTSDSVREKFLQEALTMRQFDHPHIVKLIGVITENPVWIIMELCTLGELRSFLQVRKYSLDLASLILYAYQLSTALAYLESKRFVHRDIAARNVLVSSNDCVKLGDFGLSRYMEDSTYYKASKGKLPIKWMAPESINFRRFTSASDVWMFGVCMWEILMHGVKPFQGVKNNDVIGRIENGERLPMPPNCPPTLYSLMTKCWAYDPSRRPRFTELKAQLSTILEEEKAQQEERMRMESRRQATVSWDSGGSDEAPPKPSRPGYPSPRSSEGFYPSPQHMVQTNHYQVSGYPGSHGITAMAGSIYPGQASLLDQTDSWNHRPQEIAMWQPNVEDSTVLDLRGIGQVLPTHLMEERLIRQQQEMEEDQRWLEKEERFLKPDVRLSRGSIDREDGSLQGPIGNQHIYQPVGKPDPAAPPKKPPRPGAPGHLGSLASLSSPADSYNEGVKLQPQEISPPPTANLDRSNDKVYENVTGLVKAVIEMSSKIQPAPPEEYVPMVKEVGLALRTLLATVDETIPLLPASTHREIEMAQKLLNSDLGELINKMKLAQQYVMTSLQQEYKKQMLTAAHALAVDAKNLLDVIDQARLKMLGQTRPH
Chain of panel of human kinases (kinase named in endpoint) (Homo sapiens, UniProt O00444) (O00444 whole entry): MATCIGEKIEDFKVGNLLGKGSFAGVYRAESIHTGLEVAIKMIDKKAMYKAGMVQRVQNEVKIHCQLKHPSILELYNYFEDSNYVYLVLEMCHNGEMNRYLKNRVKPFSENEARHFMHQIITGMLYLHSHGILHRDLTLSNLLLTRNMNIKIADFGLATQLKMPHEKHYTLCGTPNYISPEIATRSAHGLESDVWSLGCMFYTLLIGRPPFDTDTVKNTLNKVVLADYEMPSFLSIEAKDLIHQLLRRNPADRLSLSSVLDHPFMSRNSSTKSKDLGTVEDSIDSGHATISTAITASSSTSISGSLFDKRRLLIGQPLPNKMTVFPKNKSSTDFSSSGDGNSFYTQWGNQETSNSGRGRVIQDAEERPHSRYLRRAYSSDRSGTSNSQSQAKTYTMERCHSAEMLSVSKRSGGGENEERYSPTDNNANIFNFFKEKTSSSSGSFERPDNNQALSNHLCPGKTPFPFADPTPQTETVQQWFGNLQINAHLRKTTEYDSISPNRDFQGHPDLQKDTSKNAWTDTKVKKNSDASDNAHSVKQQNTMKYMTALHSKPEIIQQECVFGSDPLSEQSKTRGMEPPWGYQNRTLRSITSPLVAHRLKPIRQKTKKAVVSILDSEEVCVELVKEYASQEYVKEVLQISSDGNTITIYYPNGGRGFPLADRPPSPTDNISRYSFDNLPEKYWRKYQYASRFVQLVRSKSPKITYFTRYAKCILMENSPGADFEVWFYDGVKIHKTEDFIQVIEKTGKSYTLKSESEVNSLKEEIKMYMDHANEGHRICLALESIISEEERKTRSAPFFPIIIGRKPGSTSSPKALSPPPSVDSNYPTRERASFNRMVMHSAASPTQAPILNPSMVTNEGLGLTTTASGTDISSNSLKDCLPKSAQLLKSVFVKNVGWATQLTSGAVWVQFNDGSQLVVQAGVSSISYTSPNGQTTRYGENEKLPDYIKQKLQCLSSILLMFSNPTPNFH

**Q.** Which results are given for `CC(C)C(=O)Nc1nc2cc(-c3ccc4c(c3)c(C(=O)NC(C)c3ccccc3)cn4C)ccn2n1` (centres unmarked) [RI-962]?
**A.** activity at 10 µM [1]: 86%; activity at 10 µM [2]: 90%; activity at 10 µM [3]: 86%; activity at 10 µM [4]: 132%; activity at 10 µM [5]: 88%; activity at 10 µM [6]: 88%; activity at 10 µM [7]: 108%; activity at 10 µM [8]: 110%; activity at 10 µM [9]: 84%; activity at 10 µM [10]: 78%; activity at 10 µM [11]: 112%; activity at 10 µM [12]: 83%; activity at 10 µM [13]: 113%; activity at 10 µM [14]: 103%; activity at 10 µM [15]: 100%; activity at 10 µM [16]: 86%; activity at 10 µM [17]: 137%; activity at 10 µM [18]: 68%; activity at 10 µM [19]: 85%; activity at 10 µM [20]: 105%; activity at 10 µM [21]: 93%; activity at 10 µM [22]: 76%; activity at 10 µM [23]: 93%; activity at 10 µM [24]: 95%; activity at 10 µM [25]: 90%; activity at 10 µM [26]: 104%
